# Laboratory results: patent EP4520331A1, “PHARMACEUTICAL COMPOSITION COMPRISING TRPV4 INHIBITOR FOR USE IN THE PREVENTION OR TREATMENT OF CEREBRAL CAVERNOUS MALFORMATIONS (CCM)” (Université Grenoble Alpes, priority 2023, dated 2025)
# Experiments:
# Type in all cases: cell-based, Human
# [1] = system: CCM2-depleted endothelial cells; test: xCELLigence proliferation assay (RTCA impedance); conditions: 400nM added to siCCM2 ECs; RTCA xCelligence impedance over 24h; Figure 1B
# Experimental: (§1) Pooled Human Umbilical Vein Endothelial Cells (HUVEC) were obtained from Pelobiotech. Upon reception, HUVEC at P0 were expanded over 2 passages in 100µg/ml collagen 1 (from rat tail, BD) coated flasks in complete EGM-2 medium (Lonza) supplemented with 100 U/ml penicillin and 100 µg/ml streptomycin at 37°C in a 5% CO2 - 3% O2 humidified chamber. HUVEC at passage 3 were transfected twice at 24 h-intervals with 30 nM siRNA and Lipofectamine RNAi max (Life Technologies, ref. 13778-150) according to the manufacturer's instructions in OptiMEM at 37°C in a regular 5% CO2 in a humidified chamber. For double transfections, 30 nM of each siRNA duplexes (Dharmacon smartpool ON-TARGET plus Thermo Scientific) was used: Non-targeting siRNA #1 (ref. D-001810-01), CCM2 siRNA (ref. L-014728-01) and TRPV4 siRNA (ref. L-004195-00).
# Proliferation assay was performed using the xCELLigence Real-Time Cell Analysis (RTCA) DP instrument in combination with E-plate 16 (ACEA Biosciences) coated with 100µL of 100µg/mL collagen 1 (from rat tail) for 30 min at 37°C and washed 2 times with PBS 1X. 50 µL of complete EBM-2 medium was added and baseline without cells was made with RTCA software. 2.5x103 transfected HUVEC (4 wells per condition) were seeded 24h after the second round of transfection in 50µL of complete EBM-2-medium. […] Impedance measurements were recorded every 5 min during 24h. […]
# [2] = system: CCM2-depleted endothelial cells; test: Ki67 immunofluorescence staining (proliferative marker); conditions: 400nM added to siCCM2 ECs; Figure 1E
# Experimental: as §1
# Transfected HUVEC were seeded at 3x10^4 cells (sparsed, for Ki67 staining) or […] (confluent, for VE-cadherin staining) in 24-well plates on coverslips coated with 10 µg/ml fibronectin (from human plasma, Sigma Aldrich) and incubated overnight (Ki67 experiment) or for 48h (VE-cadherin experiment) in complete EBM-2 medium in presence or absence of the calcium channels inhibitors dissolved in DMSO. […] The percentage of Ki67 positive cells was counted manually out of more than 130 cells total.
# [3] = system: CCM2-depleted endothelial cells; test: Gelatin degradation assay (ECM degradation); conditions: 800 nM; siCCM2 HUVEC; Figure 3B
# Experimental: as §1, with “For double transfections, 30 nM of each siRNA duplexes (Dharmacon smartpool ON-TARGET plus Thermo Scientific) was used: Non-targeting siRNA #1 (ref. D-001810-01), CCM2 siRNA (ref. L-014728-01) and TRPV4 siRNA (ref. L-004195-00).” left out
# Coverslips in 24 well-plates were coated with gelatin-Alexa488 dye as previously described (70). siCT and siCCM2 HUVEC were seeded 24h after the second siRNA transfection at 3x10^4/well in OptiMEM medium in presence or absence of the calcium channels inhibitors overnight at 37°C in a 5% CO2 incubator. […] For a quantitative analysis of the degradative skill of siRNA transfected cells, 10 images per condition were randomly acquired and were converted to binary images using B&W thresholding on Imaged. The total area of the black zones corresponding to the total area of degradation of the fluorescent gelatin was measured.
smiles,measurement,setting,value
"O=C(NC1(c2ccccc2)CC1)c1c(CN2CCC(N3CCCCC3)CC2)c(-c2cccc(C(F)(F)F)c2)nc2cc(Br)ccc12 [GSK2193874, 3-([1,4'-Bipiperidin]-1'-ylmethyl)-7-bromo-N-(1-phenylcyclopropyl)-2-[3-(trifluoromethyl)phenyl]-4-quinolinecarboxamide]",proliferation rate,[1],restoration
same,proliferative marker Ki67,[2],restoration
same,CCM2-depleted ECs capacity to degrade the ECM such as gelatin,[3],inhibits
